In data set [1] the test system is TNFα. The experiment in a line: PHA-induced TNFα production (ELISA of mononuclear cell supernatants). Type of data set: cell-based. To be noted: Homo sapiens. The method, then: (§1) Fatty acid (66pmn) was then added in 50ul and pre-incubated with the cells for 30 min at 37° C. in 5% CO2. Mitogen (PHA, ConA, PWM, Staph. aureus) was then added in 100 μl and the cells incubated for 66 hours at 37° C. in 5% CO2 before the addition of tritiated thymidine (1 μCi/well). After a total of 72 h in culture the cells were harvested and proliferation (thymidine incorporation) and supernatant's assayed for the presence of cytokines.
(§2) Cytokine levels in culture supernatants were determined by specific ELISA using anti-cytokine antibodies. The following cytokine levels were determined TNFα, TNFβ, interferon-γ, IL-1β, IL-2.
A general note: ELISA stands for enzyme-linked immunosorbent assay.

Data set [2] concerns peripheral blood mononuclear cell proliferation. Put plainly: Mononuclear cell proliferation assay (thymidine incorporation). Type of data set: cell-based, human. To be noted: for % INHIBITION OF INDUCED PROLIFERATION AT 20 μM PUFA: mitogen-induced PBMC proliferation, one experiment in duplicate, representative of 4; for inhibition at 20 µM: Homo sapiens, read-out: % INHIBITION OF PROLIFERATION
The method, then:
Mononuclear Cell Proliferation Assays
Mononuclear cells were separated from peripheral blood of normal human donors as described by Ferrante and Thong (1980, J. Immunol. Methods 36:109)). The mononuclear cells were resuspended in RPMI-1640 containing 20% human AB serum and placed into 96 well microtrays (50 μl per well, cell density 4×10^6 cells/ml). Fatty acid ([…]) was then added in 50ul and pre-incubated with the cells for 30 min at 37° C. in 5% CO2. Mitogen (PHA, ConA, PWM, Staph. aureus) was then added in 100 μl and the cells incubated for 66 hours at 37° C. in 5% CO2 before the addition of tritiated thymidine (1 μCi/well). After a total of 72 h in culture the cells were harvested and proliferation (thymidine incorporation) and supernatant's assayed for the presence of cytokines.
In general terms: Incorporation of labelled thymidine or its analogues reports DNA synthesis.

The test system of data set [3] is interferon γ. Put plainly: PHA-stimulated interferon γ production (ELISA of mononuclear cell supernatants). Type of data set: cell-based. To be noted: Homo sapiens, amino acid conjugated PUFA at 20 μM (Table 6), read-out: % inhibition of IFNγ production. The procedure: as §1, §2
Data set [4] has as its system psoriasis. To be noted: drugs which block the cyclo-oxygenase pathway; cited from earlier work.
The subject of data set [5] is DTH induced by SRBC. Put plainly: Delayed type hypersensitivity against sheep red blood cells. Type of data set: in vivo, Female balb/c mice. The procedure: Delayed Type Hypersensitivity Against Sheep Red Blood Cells. Female balb/c mice were administered a priming dose of 100 μl of a 10% haematocrit of sheep red blood cells (SRBC) subcutaneously. Six days later mice were administered 25 μl of a 10% haematocrit of SRBC intradermally into the right hind footpad at time T-0 hrs. The subsequent anti-inflammatory response was evaluated by measuring the thickness of both hind footpads. Standard anti-inflammatory compounds, vehicle and test substances were administered intraperitonieally one hour prior to the SRBC challenge. PUFA compounds were administered in peanut oil.

Setting [6] is: PHA-induced TNFα, PUFA at 20 μM (Table 4), read-out: % INHIBITION OF CYTOKINE PRODUCTION (TNFα).
Setting [7] is: PHA-stimulated, amino acid conjugated PUFA at 20 μM (Table 6), read-out: % inhibition of TNFα production.

These results are taken from US6262119A, “Methods of treating immunopathologies using polyunsaturated fatty acids” (priority 1996, dated 2001).

Where two headings read alike, the source gives them in different places.

Consider `CC/C=C\C/C=C\C/C=C\CCCCCCCCOCC(=O)O` [β-oxa 21:3 (n-3), Z, Z, Z (9, 12, 15-Octadecatrienyloxy) acetic acid], for which the inhibition at 20 µM in data set [1] (setting [6]) worked out at 39%.
Regarding `CC/C=C\C/C=C\C/C=C\CCCCCCCCSCC(=O)O` [β-thia 21:3 (n-3), Z,Z,Z,Z-(9,12,15-Octadecatrienylthio)acetic acid], in data set [2], the “% INHIBITION OF INDUCED PROLIFERATION AT 20 μM PUFA” value is given as 28%. For the same compound, the inhibition at 20 µM in data set [1] (setting [6]) amounted to 17%.
For `CCCCC/C=C\C/C=C\C/C=C\C/C=C\CCCCSCC(=O)O` [β-thia 23:4 (n-6), Z,Z,Z,Z-(5,8,11,14-Eicosatetraenylthio) acetic acid], in data set [1] (setting [6]), the inhibition at 20 µM amounted to 35%.
As for `CCCCC/C=C\C/C=C\C/C=C\CCCCCOCC(=O)O` [β-oxa 21:3 (n-6), Z, Z, Z (6,9, 12-Octadecatrienyloxy) acetic acid], in data set [2], the “% INHIBITION OF INDUCED PROLIFERATION AT 20 μM PUFA” value is given as 17%. The inhibition at 20 µM in data set [1] (setting [6]) was 38%.
`CCCCC/C=C\C/C=C\C/C=C\C/C=C\CCCC(=O)N[C@@H](CC(=O)O)C(=O)O` [arachidonic acid-aspartic acid]: the inhibition at 20 µM in data set [1] (setting [7]) worked out at 38.3%; in data set [3], 68.4%.
Take `CCCCC/C=C\C/C=C\C/C=C\CCCCCSCC(=O)O` [β-thia 21:3 (n-6), Z,Z,Z,Z-(6,9, 12-Octadecatrienythio)acetica acid]: the inhibition at 20 µM in data set [1] (setting [6]) came out at 17%.
As for `CC/C=C\C/C=C\C/C=C\CCCCCCCC(=O)NCC(=O)O` [α-linolenic acid-glycine], the inhibition at 20 µM in data set [2] (induced by PHA, PUFA at 20 μM) stood at 15.6%; in data set [1] (setting [7]) it was 29.3%; in data set [3], 14.5%.
For `COc1ccc2c(c1)c(CC(=O)O)c(C)n2C(=O)c1ccc(Cl)cc1` [Indomethacin, reference compound], the exacerbations of psoriasis entry in data set [4] is on record as “induce exacerbations of psoriasis”. Further, the “% paw volume relative to control” value in data set [5] (30 mg/kg, 3 hours post challenge) is on record as 89.59%; in data set [5] (30 mg/kg, 6 hours post challenge) it was 81.40%; in data set [5] (30 mg/kg, 24 hours post challenge), 49.57%.
For `CC/C=C\C/C=C\C/C=C\CCCCCCCCSCCC(=O)O` [γ-thia 22:3 (n-3), Z,Z,Z,Z-(9,12,15-Octadecatrienylthio)proponionic acid], the inhibition at 20 µM in data set [1] (setting [6]) is 25%.
In the case of `CC/C=C\C/C=C\C/C=C\C/C=C\C/C=C\C/C=C\CCC(=O)N[C@@H](CC(=O)O)C(=O)O` [docosahexanoic acid-aspartic acid], the inhibition at 20 µM in data set [1] (setting [7]) came to 17.4%; in data set [3] it was 8.3%.
As to `CCCCC/C=C\C/C=C\C/C=C\C/C=C\CCCCOCC(=O)O` [β-oxa 23:4 (n-6), Z, Z, Z, Z (5,8, 11, 14-Eicosatetraenyloxy) acetic acid], the inhibition at 20 µM in data set [1] (setting [6]) was determined as 25%.
`CC/C=C\C/C=C\C/C=C\C/C=C\C/C=C\CCCC(=O)N[C@@H](CC(=O)O)C(=O)O` [eicosapentanoic acid-aspartic acid]: the inhibition at 20 µM amounted to 17.1% in data set [1] (setting [7]) and 66.1% in data set [3].
Take `CCCCC1C(=O)N(c2ccccc2)N(c2ccccc2)C1=O` [phenylbutazone]: the exacerbations of psoriasis result in data set [4] is on record as “induce exacerbations of psoriasis”.
`CC/C=C\C/C=C\C/C=C\C/C=C\C/C=C\C/C=C\CCCSCC(=O)O` [β-thia 25:6 (n-3)]: the “% INHIBITION OF INDUCED PROLIFERATION AT 20 μM PUFA” value in data set [2] came out at 97%. The inhibition at 20 µM in data set [1] (setting [6]) is 90%.
As for `CCCCC/C=C\C/C=C\C/C=C\CCCCC(=O)N[C@@H](CC(=O)O)C(=O)O` [γ-linolenic acid-aspartic acid], the inhibition at 20 µM is 15.4% in data set [2] (induced by PHA, PUFA at 20 μM); 4.7% in data set [1] (setting [7]); 0% in data set [3].
As for `CCCCCC(O)/C=C/C=C\C/C=C\CCCCCOCC(=O)O` (stereo not drawn) [16-OH-β-oxa 21:3 (n-6), Z, Z, E-(13-Hydroxy-6,9,1-octadecatienyloxy) acetic acid], in data set [2], the “% INHIBITION OF INDUCED PROLIFERATION AT 20 μM PUFA” value came out at 50%. In addition, in data set [1] (setting [6]), the inhibition at 20 µM amounted to 71%. For the same compound, the “% paw volume relative to control” value in data set [5] (10 mg/kg, 3 hours post challenge) is recorded as 95.03%; in data set [5] (10 mg/kg, 6 hours post challenge) it was 81.63%; in data set [5] (10 mg/kg, 24 hours post challenge), 86.91%; in data set [5] (50 mg/kg, 3 hours post challenge), 65.01%; in data set [5] (50 mg/kg, 6 hours post challenge), 48.95%; in data set [5] (50 mg/kg, 24 hours post challenge) it was 51.02%. Also, the “% paw volume relative to control” value in data set [5] (100 mg/kg, 3 hours post challenge) stood at 55.86%; in data set [5] (100 mg/kg, 6 hours post challenge), 40.94%; in data set [5] (100 mg/kg, 24 hours post challenge) it was 31.97%.
For the compound `CCCCC/C=C\C/C=C\C/C=C\CCCCC(=O)NCC(=O)O` [γ-linolenic acid-glycine], the inhibition at 20 µM in data set [2] (induced by PHA, PUFA at 20 μM) was 29%; in data set [1] (setting [7]), 21.5%; in data set [3], 0%.
`Cc1ccc(Cl)c(Nc2ccccc2C(=O)O)c1Cl` [meclotenamate]: the exacerbations of psoriasis result in data set [4] is “induce exacerbations of psoriasis”.
For `CCCCC/C=C\C/C=C\C/C=C\C/C=C\CCCCSCCC(=O)O` [γ-thia 24:4 (n-6), Z,Z,Z,Z-(5,8,11,14-Eicosatetraenylthio) propionic acid], the inhibition at 20 µM in data set [1] (setting [6]) came out at 34%.
Consider `CC/C=C\C/C=C\C/C=C\C/C=C\C/C=C\CCCC(=O)NCC(=O)O` [eicosapentanoic acid-glycine], for which the inhibition at 20 µM in data set [1] (setting [7]) is 11%; in data set [3], 68.2%.
On to `CCCCC/C=C\C/C=C\C/C=C\CCCCCSCCC(=O)O` [γ-thia 22:3 (n-6), Z,Z,Z,Z-(6,9,12-Octadecatrienylthio)propionic acid], for which, in data set [1] (setting [6]), the inhibition at 20 µM was determined as 41%.
For `CCCCC/C=C\C/C=C\C/C=C\C/C=C\CCCC(=O)NCC(=O)O` [arachidonic acid-glycine], the inhibition at 20 µM in data set [2] was determined as 8%; in data set [1] (setting [7]), 26.6%; in data set [3] it was 35.9%.
In the case of `CC/C=C\C/C=C\C/C=C\C/C=C\C/C=C\C/C=C\CCC(=O)NCC(=O)O` [docosahexanoic acid-glycine], the inhibition at 20 µM was determined as 16.2% in data set [1] (setting [7]) and 44% in data set [3].
Regarding `CC/C=C\C/C=C\C/C=C\CCCCCCCC(=O)N[C@@H](CC(=O)O)C(=O)O` [α-linolenic acid-aspartic acid], the inhibition at 20 µM in data set [2] (induced by PHA, PUFA at 20 μM) came to 7.3%; in data set [1] (setting [7]), 0%; in data set [3] it was 0%.
Regarding `C[C@]12C=CC(=O)C=C1CC[C@@H]1[C@@H]2[C@@H](O)C[C@@]2(C)[C@H]1CC[C@]2(O)C(=O)CO` [Prednisolone, reference compound], the “% paw volume relative to control” value in data set [5] (20 mg/kg, 3 hours post challenge) was determined as 58.35%; in data set [5] (20 mg/kg, 6 hours post challenge) it was 60.12%; in data set [5] (20 mg/kg, 24 hours post challenge), 100%.
